In US12064437B2, “Methods for treating systemic lupus erythematosus and the use of biomarkers as a predictor of clinical sensitivity to therapies” (CELGENE CORPORATION, priority 2020, dated 2024):

Assays:
Assay type in all cases: in vivo, human
[1] = tested on: subjects with active autoantibody-positive SLE; assay: Phase 2b study in SLE: SLE Responder Index 4 (SRI-4) response at week 24; conditions: for Percentage of Subjects Who Achieve SRI(4) at Week 24, n/m (%) / SRI(4) at Week 24, Stratified Difference (%) (95% CI), Iberdomide - Placebo: ITT
Experimental: (§1) The pharmacokinetics, pharmacodynamics (PD), efficacy, and safety of oral iberdomide ((S)-3-[4-({4-[(morpholin-4-yl)methyl]phenyl}methoxy)-1-oxo-1,3-dihydro-2H-isoindol-2-yl]piperidine-2,6-dione-hydrogen chloride (1/1)) were evaluated in a phase 2b study in subjects with active autoantibody-positive SLE.
(§2) Adult SLE patients (N=288) with a ≥6-month history of SLE and SLE Disease Activity Index (SLEDAI 2K) ≥6 were randomized to placebo (n=83) or iberdomide 0.15 mg QD (n=42), 0.3 mg QD (n=82), or 0.45 mg QD (n=81). Clinical response was determined by the SLE Responder Index 4 (SRI-4) at week 24 for all patients and within pre-specified biomarker-enriched subsets based on expression of Ikaros, Aiolos, the Type 1 IFN signature (IFI27, IFI44, IFI44L, RSAD2), and other gene modules measured from fingerstick blood collected at baseline (Modular Immune Profile Test, DxTerity Diagnostics, Inc.). The primary objective of the study was to evaluate the clinical efficacy of 3 doses of iberdomide (0.45 mg once per day [QD], 0.30 mg QD, or 0.15 mg QD) compared to placebo, for the treatment of active SLE using the SLE Responder Index at Week 24.

[2] = tested on: subjects with active autoantibody-positive SLE; assay: Phase 2b study in SLE: improvement of ≥50% from baseline in CLASI activity score; conditions: for percentage of subjects with improvement of ≥50% from baseline in CLASI activity score: baseline CLASI ≥8, Week 24
Experimental: as §1, §2
CLASI activity score at Week 24 was analyzed. Results for improvement of ≥50% from baseline in CLASI activity score at Week 24 were observed. Results are described as follows for overall subjects at each time point and for subgroups based on baseline characteristics and on mRNA and DNA expression as follows: […]

[3] = tested on: subjects with active autoantibody-positive SLE; assay: Phase 2b study in SLE: BILAG-Based Combined Lupus Assessment (BICLA) response
Experimental: as §1, §2
The treatment comparison with placebo (33.3%) for BICLA was larger in the subgroup of subjects with baseline IKZF3 high, but only for 0.45 mg QD iberdomide (52.0%) and 0.15 mg QD iberdomide (41.7%).

[4] = tested on: subjects with active autoantibody-positive SLE; assay: Exposure-response analysis: logistic regression of SRI(4) response on iberdomide AUCss
Experimental: PK assessments were performed. Exposure-response analysis included subjects from Study SLE-002 who had both posthoc estimated iberdomide PK metric of AUCss from the final population PK model and efficacy data.
The effect of iberdomide exposure on SRI(4) response was further evaluated by multivariate logistic modeling. Subject characteristics of baseline oral OCS (yes as reference), baseline antimalarials (yes as reference), categorical variables of Type I IFN and IKZF3 (Aiolos) signature (low as reference) were tested in regression analysis. Subjects with IFKZ3 (Aiolos) high gene signature were associated with better response (p=0.033) (Table 2).

[5] = T cell Exhaustion: Low at baseline, 0.15 mg QD
[6] = T cell Exhaustion: Low at baseline, 0.30 mg QD
[7] = T cell Exhaustion: Low at baseline, 0.45 mg QD
[8] = Type 1 IFN: High at baseline, 0.15 mg QD
[9] = Type 1 IFN: High at baseline, 0.30 mg QD
[10] = Type 1 IFN: High at baseline, 0.45 mg QD
[11] = AUCss on IFKZ3 (Aiolos) High Subset

O=C1CC[C@H](N2Cc3c(OCc4ccc(CN5CCOCC5)cc4)cccc3C2=O)C(=O)N1 [iberdomide, (S)-3-[4-({4-[(morpholin-4-yl)methyl]phenyl}methoxy)-1-oxo-1,3-dihydro-2H-isoindol-2-yl]piperidine-2,6-dione-hydrogen chloride (1/1)]
Percentage of Subjects Who Achieve SRI(4) at Week 24, n/m (%) ([1]; Overall Subjects, 0.45 mg QD, nonresponder imputation, listed as Iberdomide): 44/81 (54.3) % | SRI(4) at Week 24, Stratified Difference (%) (95% CI), Iberdomide - Placebo ([1]; Overall Subjects, 0.45 mg QD, listed as Iberdomide): 19.4 (4.12, 33.42) % | Percentage of Subjects Who Achieve SRI(4) at Week 24, n/m (%) [1, 5]: 13/29 (44.8) % | SRI(4) at Week 24, Stratified Difference (%) (95% CI), Iberdomide - Placebo [1, 5]: 5.4 (−15.51, 26.63) % | Percentage of Subjects Who Achieve SRI(4) at Week 24, n/m (%) [1, 6]: 28/65 (43.1) % | SRI(4) at Week 24, Stratified Difference (%) (95% CI), Iberdomide - Placebo [1, 6]: 4.7 (−12.69, 21.53) % | Percentage of Subjects Who Achieve SRI(4) at Week 24, n/m (%) [1, 7]: 39/66 (59.1) % | SRI(4) at Week 24, Stratified Difference (%) (95% CI), Iberdomide - Placebo [1, 7]: 21.9 (4.30, 37.77) % | Percentage of Subjects Who Achieve SRI(4) at Week 24, n/m (%) [1, 8]: 15/25 (60.0) % | SRI(4) at Week 24, Stratified Difference (%) (95% CI), Iberdomide - Placebo [1, 8]: 25.6% | SRI(4) at Week 24, Stratified Difference (%) (95% CI), Iberdomide - Placebo ([1]; Type 1 IFN: High at baseline, 0.15 mg QD, listed as Iberdomide): 25.6 (1.54, 46.35) % | Percentage of Subjects Who Achieve SRI(4) at Week 24, n/m (%) [1, 9]: 21/49 (42.9) % | SRI(4) at Week 24, Stratified Difference (%) (95% CI), Iberdomide - Placebo [1, 9]: 10.6 (−8.93, 29.11) % | Percentage of Subjects Who Achieve SRI(4) at Week 24, n/m (%) [1, 10]: 34/57 (59.6) % | SRI(4) at Week 24, Stratified Difference (%) (95% CI), Iberdomide - Placebo [1, 10]: 26.8% | SRI(4) at Week 24, Stratified Difference (%) (95% CI), Iberdomide - Placebo ([1]; Type 1 IFN: High at baseline, 0.45 mg QD, listed as Iberdomide): 26.8 (7.49, 43.54) % | SRI-4 clinical efficacy ([1]; double-negative IFN Low Aiolos Low population, week 24): no clinical efficacy | improvement of ≥50% from baseline in CLASI activity score, stratified difference from placebo ([2]; 0.45 mg QD, Week 8, ITT population using NRI): 14.3% | improvement of ≥50% from baseline in CLASI activity score, stratified difference from placebo ([2]; 0.45 mg QD, Week 12, ITT population using NRI): 12.2% | improvement of ≥50% from baseline in CLASI activity score, stratified difference from placebo ([2]; 0.45 mg QD, Week 16, ITT population using NRI): 18.2% | improvement of ≥50% from baseline in CLASI activity score, stratified difference from placebo ([2]; 0.45 mg QD, Week 20, ITT population using NRI): 12.3% | percentage of subjects with improvement of ≥50% from baseline in CLASI activity score ([2]; IKZF3 high, 0.15 mg QD): 50.0% | percentage of subjects with improvement of ≥50% from baseline in CLASI activity score ([2]; IKZF3 high, 0.30 mg QD): 33.3% | percentage of subjects with improvement of ≥50% from baseline in CLASI activity score ([2]; IKZF3 high, 0.45 mg QD): 77.8% | percentage of subjects with improvement of ≥50% from baseline in CLASI activity score ([2]; Ikaros IFN module high, 0.15 mg QD): 54.5% | percentage of subjects with improvement of ≥50% from baseline in CLASI activity score ([2]; Ikaros IFN module high, 0.30 mg QD): 52.4% | percentage of subjects with improvement of ≥50% from baseline in CLASI activity score ([2]; Ikaros IFN module high, 0.45 mg QD): 63.6% | percentage of subjects with improvement of ≥50% from baseline in CLASI activity score ([2]; Type 1 IFN module high, 0.15 mg QD): 66.7% | percentage of subjects with improvement of ≥50% from baseline in CLASI activity score ([2]; Type 1 IFN module high, 0.30 mg QD): 52.4% | percentage of subjects with improvement of ≥50% from baseline in CLASI activity score ([2]; Type 1 IFN module high, 0.45 mg QD): 61.9% | improvement of ≥50% from baseline in CLASI activity score, stratified difference from placebo ([2]; baseline CLASI activity score ≥8, 0.15 mg QD, Week 16): 10.6% | improvement of ≥50% from baseline in CLASI activity score, stratified difference from placebo ([2]; baseline CLASI activity score ≥8, 0.15 mg QD, Week 20): 35.3% | improvement of ≥50% from baseline in CLASI activity score, stratified difference from placebo ([2]; baseline CLASI activity score ≥8, 0.30 mg QD, Week 8): 23.6% | improvement of ≥50% from baseline in CLASI activity score, stratified difference from placebo ([2]; baseline CLASI activity score ≥8, 0.30 mg QD, Week 16): 3.1 | improvement of ≥50% from baseline in CLASI activity score, stratified difference from placebo ([2]; baseline CLASI activity score ≥8, 0.45 mg QD, Week 4): 32.0% | improvement of ≥50% from baseline in CLASI activity score, stratified difference from placebo ([2]; baseline CLASI activity score ≥8, 0.45 mg QD, Week 16): 9.4% | percentage of subjects who achieved BICLA response at Week 24 ([3]; baseline IKZF3 high, 0.15 mg QD): 41.7% | percentage of subjects who achieved BICLA response at Week 24 ([3]; baseline IKZF3 high, 0.45 mg QD): 52.0% | BICLA response at Week 24, stratified difference from placebo ([3]; overall subjects with baseline BILAG 2004 1A or 2B scores, 0.15 mg QD): 0.3% | percentage of subjects who achieved BICLA response at Week 24 ([3]; overall subjects with baseline BILAG 2004 1A or 2B scores, 0.15 mg QD, NRI, ITT): 37.1% | BICLA response at Week 24, stratified difference from placebo ([3]; overall subjects with baseline BILAG 2004 1A or 2B scores, 0.30 mg QD): −3.6% | percentage of subjects who achieved BICLA response at Week 24 ([3]; overall subjects with baseline BILAG 2004 1A or 2B scores, 0.30 mg QD, NRI, ITT): 33.3% | BICLA response at Week 24, stratified difference from placebo ([3]; overall subjects with baseline BILAG 2004 1A or 2B scores, 0.45 mg QD): 1.0% | percentage of subjects who achieved BICLA response at Week 24 ([3]; overall subjects with baseline BILAG 2004 1A or 2B scores, 0.45 mg QD, NRI, ITT): 37.3% | OR (odds ratio) of Multivariate Logistic Model for SRI(4) [4, 11]: 1.102 | Parameter Estimate of Multivariate Logistic Model for SRI(4) [4, 11]: 0.0969 | relationship of binary response SRI(4) to iberdomide AUCss (logistic regression) ([4]; dose range 0.15 mg to 0.45 mg QD): no relationship
